Experiment [1] deals with T1, human 5-HT4(b) receptor (Homo sapiens, UniProt Q13639). The experiment in a line: Adenylyl cyclase assay (antagonist pKb, agonist/antagonist properties). The experiment is classed as biochemical. The note with it: membranes of HEK293 cells stably expressing human 5-HT4(b) receptor; for Kb: hyphen-separated values taken as single determinations. How it is done:
(§1) The development of HEK293 cell lines stably expressing human 5-HT4(b) receptors was described and published previously (Bach et al. 2001). Briefly, HEK293 cells (ATCC) were grown in Dulbecco's modified Eagle's medium with 10% foetal calf serum and penicillin (100 U/ml) and streptomycin (100 μg/ml). Cells were transfected with plasmid DNA (pcDNA3.1(−) containing human 5-HT4(b) receptor cDNA) using SuperFect Transfection Reagent (QIAGEN) according to the manufacturers protocol. Serial dilutions of transfected cells were plated in 96 well plates containing G418 (geneticin; Amersham) at 0.4 mg/ml, and isolated single colonies of cells transformed to the neomycin-resistant phenotype were expanded and tested for expression of serotonin receptors by measuring serotonin-stimulated adenylyl cyclase activity (Themmen et al. 1993). Transformed cells were always grown in the presence of G418 (0.4 mg/ml). For binding and adenylyl cyclase analysis, stable cell lines were grown and maintained in UltraCULTURE™ general purpose serum-free medium (BioWhittaker, Walkersville, Md., USA), supplemented with L-glutamine (2 mM), penicillin (100 U/ml) and streptomycin (100 μg/ml).
(§2) Membranes were prepared from stably transfected HEK293 cells cultured on 150-mm cell culture dishes and grown to 80% confluence in serum-free medium (UltraCULTURE™, BioWhittaker) with penicillin (10 U/ml) and 2 mM L-Glutamine (BioWhittaker). Cells were washed twice with 10 ml ice-cold HBSS, scraped with a rubber policeman in 10 ml ice-cold HBSS and collected by centrifugation at 800 g for 5 min at 4° C. The cell pellet was resuspended in 1 ml/dish ice-cold STE buffer (27% (w/v) sucrose, 50 mM Tris-HCl, pH 7.5 at 20° C., 5 mM EDTA) and homogenized with an Ultra-Turrax (IKA) homogenizer, using five 10 s bursts with 30 s cooling in ice-water between bursts. To remove nuclei, the homogenate was centrifuged at 300 g for 5 min at 4° C. and the supernatant was further centrifuged at 17000 g for 20 min at 4° C. and the supernatant removed. The crude membrane pellet was resuspended with ten strokes of tight fitting pestle B in a Dounce glass-glass homogenizer in 1 ml/dish ice-cold TE (50 mM Tris-HCl, pH 7.5 at RT, 5 mM EDTA). This procedure was repeated twice and the resuspended membranes were finally aliquotted and flash frozen in liquid nitrogen and stored at −70° C. until use.
Adenylyl cyclase activity was measured in membranes of HEK293 cells stably expressing the human 5-HT4(b) receptor (refs.) by determining conversion of [α-^32P]ATP to [^32P]cAMP in membranes prepared in STE by homogenization of cells grown and washed as described above in a Dounce glass-glass homogenizer by 10 strokes with the tight-fitting pestle. Membranes were kept on ice prior to assay. Adenylyl cyclase activities were measured in 10-μl aliquots in a final volume of 50 μl in the presence of 0.1 mM [α-^32P]ATP (1-2×10^6 cpm/assay), 4 mM MgCl2, 20 μM GTP, 1 mM EDTA, 1 mM [^3H]cAMP (ca. 10,000 cpm/assay), […] 3-isobutyl-1-methyl xanthine (IBMX; Sigma), a nucleoside triphosphate regenerating system consisting of 20 mM creatine phosphate (Sigma), 0.2 mg/ml creatine phosphokinase (Sigma) and 40 U/ml myokinase (Sigma) and additives described in the text and figures. When forskolin (Calbiochem, La Jolla, Calif., USA) was used the concentration was 100 μM. Incubations were for 20 min at 32° C. Cyclic AMP formed was quantified by the double column chromatography system of Salomon et al. (1974) as modified by Bockaert et al. (1976).
(§3) Binding and adenylyl cyclase data were analyzed by non-linear regression using Microsoft Excel with the Solver add-in, using the below equations.
Activation of adenylyl cyclase—The data were fit to the equation
where a is basal adenylyl cyclase activity, b is maximal adenylyl cyclase activity stimulated by the agonist, c is EC50, and x is the concentration of agonist.
(§4) IC50 values from competitive binding assays were converted to Kb values by the method of Cheng and Prusoff (1973).

Experiment [2] deals with T1, human 5-HT4(b) receptor. The experiment can be described thus: Radioligand binding assay with [3H]GR113808. The method, then:
as §1, §2
Binding assays were performed on membranes of HEK293 cells stably expressing the human 5-HT4(b) receptor (refs.) in 96-well, round-bottom microtiter plates with total reaction volumes of 50-200 μl, containing the indicated concentration of [^3H]GR113808 with or without competing unlabelled ligand in a binding buffer containing 50 mM Tris-HCl (pH 7.5 at RT), 1 mM EDTA, 5 mM EGTA, 2 mM MgCl2, 1 mM ascorbate, 0.1% BSA and 100 μM GTP. The plates were incubated at 23 EC for 60 min and harvested onto UniFilter™-96 GF/C™ (Packard Instrument Co., Meriden, Conn., USA), presoaked in 0.3% polyethyleneimine (Sigma), using a Packard FilterMate Universal Harvester with 96-well format, and washed 4-6 times with approximately 0.25 ml/well of ice-cold buffer, containing 50 mM Tris-HCl (pH 7.0 at RT) and 2 mM MgCl2. The filters were dried and counted at approximately 40% efficiency in a Top-Count liquid scintillation counter (Packard), using 20 μl per filter well of Micro-Scint liquid scintillation cocktail (Packard).
as §3
Competitive binding assays—The data were fit to the equation
where a is non-specific binding, b is total binding in the absence of competitor, c is IC50, and x is the concentration of competitor. Where relevant, relative binding data were obtained by recalculating the data using a=0 and b=100.
as §4

The target of experiment [3] is T2, hERG ion channel (Homo sapiens, UniProt Q12809).
T2 construct: expressed in transfected cells; host or cells: HEK-293, stably transfected
T2 sequence (Q12809 whole entry): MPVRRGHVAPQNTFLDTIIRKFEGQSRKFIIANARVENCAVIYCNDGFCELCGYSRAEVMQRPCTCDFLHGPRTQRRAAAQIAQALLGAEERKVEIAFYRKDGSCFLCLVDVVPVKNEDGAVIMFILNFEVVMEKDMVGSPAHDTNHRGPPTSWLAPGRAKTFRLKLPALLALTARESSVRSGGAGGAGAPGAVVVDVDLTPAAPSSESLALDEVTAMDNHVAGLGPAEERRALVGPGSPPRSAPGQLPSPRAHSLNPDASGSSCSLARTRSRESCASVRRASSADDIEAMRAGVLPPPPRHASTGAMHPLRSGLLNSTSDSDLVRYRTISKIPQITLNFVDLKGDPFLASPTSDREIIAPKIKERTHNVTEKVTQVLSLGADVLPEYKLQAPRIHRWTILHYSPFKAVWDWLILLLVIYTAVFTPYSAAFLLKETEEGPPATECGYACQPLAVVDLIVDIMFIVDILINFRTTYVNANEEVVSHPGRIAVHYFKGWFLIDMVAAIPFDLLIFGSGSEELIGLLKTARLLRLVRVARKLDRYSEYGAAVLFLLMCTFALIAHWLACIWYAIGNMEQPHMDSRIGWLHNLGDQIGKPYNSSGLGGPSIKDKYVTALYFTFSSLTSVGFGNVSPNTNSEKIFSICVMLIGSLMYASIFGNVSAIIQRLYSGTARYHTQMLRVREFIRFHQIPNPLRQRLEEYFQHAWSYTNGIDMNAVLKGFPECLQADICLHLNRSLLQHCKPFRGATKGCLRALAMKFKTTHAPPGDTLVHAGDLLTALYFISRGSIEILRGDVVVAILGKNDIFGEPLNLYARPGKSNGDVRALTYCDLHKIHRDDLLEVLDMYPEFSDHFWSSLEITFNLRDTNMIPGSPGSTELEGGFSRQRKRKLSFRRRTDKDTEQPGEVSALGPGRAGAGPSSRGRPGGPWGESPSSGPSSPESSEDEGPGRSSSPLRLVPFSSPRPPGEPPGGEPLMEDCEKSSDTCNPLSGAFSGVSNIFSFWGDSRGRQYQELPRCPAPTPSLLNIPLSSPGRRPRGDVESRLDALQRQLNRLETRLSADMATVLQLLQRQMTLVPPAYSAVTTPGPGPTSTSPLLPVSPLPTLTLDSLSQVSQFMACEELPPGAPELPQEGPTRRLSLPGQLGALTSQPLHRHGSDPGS
The experiment in a line: hERG tail current, patch-clamp in HEK-293 cells stably transfected with hERG. The experiment is classed as cell-based. How it is done:
The purpose of this study was to assess the effects of the above compounds on hERG (human ether-a-go-go related gene) tail current by examining the acute effect of the test compounds on the hERG ion channel in an appropriate in vitro test system. The human embryonic kidney cell (HEK-293), which has been stably transfected with hERG ion channel cDNA, is a preparation that is considered suitable for this purpose.
Four concentrations of each test compound were tested in a screening assay to determine the liability to block hERG channels. Using the patch-clamp technique, peak hERG tail current amplitude was measured prior to and following exposure to the compounds at the following nominal concentrations:
for approximately 7 to 32 minutes (n=3 cells for each concentration). In addition, peak hERG tail current amplitude was measured in a separate group of 3 cells, prior to and following exposure to vehicle (0.1% DMSO) for time-matched vehicle data correction. Terfenadine (at the submaximally effective concentration of 50 nM, n=3), a known inhibitor of the IKr current, was used as a positive control compound.
The test compound data were corrected for the mean effect of vehicle and rundown and the concentration-response data were plotted and fitted with a sigmoidal function, from which the IC50 values for each compound were calculated.
Background: hERG is a cardiac potassium channel; its block is linked to QT prolongation.

Setting [4] is: peak hERG tail current, HEK-293, corrected for vehicle and rundown, sigmoidal fit, read-out: hERG IC50.
The mark [5] stands for this setting: [3H]GR113808 competition, membranes of HEK293 cells stably expressing human 5-HT4(b) receptor, hyphen-separated values taken as single determinations, read-out: Binding affinity (pKd value) (converted).
Where [6] appears, read: read-out: Antagonist pKb value (converted).

Where “and” joins values, the source holds several entries; their conditions need not be identical. Equal entries are not always repeated. Where two headings read alike, the source gives them in different places.

T1 sequence (Q13639 whole entry): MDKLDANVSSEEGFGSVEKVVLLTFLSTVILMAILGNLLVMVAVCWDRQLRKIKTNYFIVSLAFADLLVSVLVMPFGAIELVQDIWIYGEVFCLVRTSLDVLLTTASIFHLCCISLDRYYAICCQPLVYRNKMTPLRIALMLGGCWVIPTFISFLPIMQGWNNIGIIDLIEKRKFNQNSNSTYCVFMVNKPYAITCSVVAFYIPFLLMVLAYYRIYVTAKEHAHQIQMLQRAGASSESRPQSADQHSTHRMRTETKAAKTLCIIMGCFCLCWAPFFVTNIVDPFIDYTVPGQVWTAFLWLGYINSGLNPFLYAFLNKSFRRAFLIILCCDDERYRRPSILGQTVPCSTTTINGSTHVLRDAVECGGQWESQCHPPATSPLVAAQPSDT

A word on the IC50: it is the concentration that gives 50% inhibition. As to `O=C(NCC1CCN(Cc2ccc(-c3ccccc3-c3nn[nH]n3)cc2)CC1)c1c2n(c3ccccc13)CCCO2` [Compound 2], the Agonist/Antagonist properties entry in experiment [1] was “Antagonist”. The Kd in experiment [2] was 3.89 nM and 4.17 nM and 4.37 nM. Also, the IC50 in experiment [3] (setting [4]) is 27.5 µM.

`O=C(OCC1CCN(Cc2ccc(-c3ccccc3-c3nn[nH]n3)cc2)CC1)c1c2n(c3ccccc13)CCCO2` [Compound 4]: the Kb in experiment [1] (Antagonist pKb value) was 0.00447 nM.

As for `COC(=O)c1ccccc1-c1ccc(CN2CCC(COC(=O)c3c4n(c5ccccc35)CCCO4)CC2)cc1` [Compound 7], the Kb in experiment [1] (Antagonist pKb value) was 0.0132 nM and 0.0479 nM. For the same compound, the Kd in experiment [2] was 0.00251 nM. In experiment [3], this compound had a concentration for half-maximal inhibition (IC50) of 0.131 µM.

Turning to `O=C(O)c1ccccc1-c1ccc(CN2CCC(COC(=O)c3c4n(c5ccccc35)CCCO4)CC2)cc1` [Compound 8], the Kb in experiment [1] (Antagonist pKb value) was 0.0631 nM and 0.331 nM. For the same compound, the Kd in experiment [2] was 0.0363 nM and 0.0776 nM. In addition, the IC50 in experiment [3] (setting [4]) stood at 47.5 µM.

As to `COC(=O)c1ccccc1-c1ccc(CN2CCC(CNC(=O)c3cc(Cl)c(N)cc3OC)CC2)cc1` [Compound 17], the Kd in experiment [2] (setting [5]) was 3.72 nM and 5.01 nM.

As to `COc1cc(N)c(Cl)cc1C(=O)NCC1CCN(Cc2ccc(-c3ccccc3C(=O)O)cc2)CC1` [Compound 18], the Kd in experiment [2] (setting [5]) is 174 nM and 126 nM.

With `COc1cc(N)c(Cl)cc1C(=O)NCC1CCN(Cc2ccc(-c3ccccc3-c3nn[nH]n3)cc2)CC1` [Compound 20], the Kd in experiment [2] (setting [5]) is 18.6 nM and 27.5 nM.

`O=C(OCC1CCN(C2C3CC4C(C3C(=O)O)C42)CC1)c1c2n(c3ccccc13)CCCO2` (stereo not shown) [Compound 23]: the Kb in experiment [1] (Antagonist pKb value) is 3.63 nM. In experiment [1], the Agonist/Antagonist properties result was “Antagonist”. The same compound showed a Kd in experiment [2] of 1.51 nM.

As to `O=C(OCC1CCN(C2CCC(C(=O)O)C2)CC1)c1c2n(c3ccccc13)CCCO2` (stereo not shown) [Compound 24], the Agonist/Antagonist properties entry in experiment [1] is reported as “Antagonist”. Moreover, the Kb in experiment [1] (setting [6]) was 2.51 nM. In experiment [2], this compound showed a Kd of 1.15 nM. In addition, the IC50 in experiment [3] (setting [4]) is 209 µM.

Regarding `O=C(OCC1CCN(C2CCCC(C(=O)O)C2)CC1)c1c2n(c3ccccc13)CCCO2` (stereo not shown) [Compound 25], in experiment [1], the Agonist/Antagonist properties entry is reported as “Antagonist”. For the same compound, the Kb in experiment [1] (setting [6]) was 2.51 nM. In addition, the Kd in experiment [2] is 1.2 nM.

In experiment [1] (Antagonist pKb value), `CC(C(=O)O)c1ccc(CN2CCC(COC(=O)c3c4n(c5ccccc35)CCCO4)CC2)cc1` (stereo not shown) [Compound 27] showed a Kb of 1.62 nM. Besides, the Kd in experiment [2] is 0.513 nM. Also, the IC50 in experiment [3] was found to be 25 µM.

Consider `CC(C)(C(=O)O)c1ccc(CN2CCC(COC(=O)c3c4n(c5ccccc35)CCCO4)CC2)cc1` [Compound 29], for which the Kb in experiment [1] (setting [6]) is 1.66 nM. This compound also gave a Kd in experiment [2] of 0.355 nM.

Take `Cn1cc(C(=O)OCC2CCN(CCNS(C)(=O)=O)CC2)c2ccccc21` [GR113808, 1-methyl-1H-indole-3-carboxylic acid, [1-[2-[(methylsulfonyl)amino]ethyl]-4-piperidinyl]methyl ester, reference compound]: the Kb in experiment [1] (Antagonist pKb value) is 0.0891 nM. Also, the Agonist/Antagonist properties result in experiment [1] is “Antagonist”. Further, in experiment [2], the Kd was 0.112 nM and 0.0389 nM.

Take `CCCCN1CCC(CNC(=O)c2c3n(c4ccccc24)CCCO3)CC1` [SB207266, reference compound]: the Agonist/Antagonist properties entry in experiment [1] is “Antagonist”. Also, in experiment [1] (setting [6]), the Kb is 0.0537 nM and 0.0372 nM and 0.269 nM. The Kd in experiment [2] (setting [5]) is 0.263 nM and 0.209 nM and 0.166 nM and 0.0355 nM and 0.0407 nM.

(Values after patent US20120094989A1, “5-HT RECEPTOR MODULATING COMPOUNDS” (priority 2009, published 2012).)
